51 compounds from patent US20260258010A1, “THIOPHENE-2-CARBOXYLIC ACID DERIVATIVE, AND PREPARATION METHOD THEREFOR AND MEDICAL USE THEREOF” (CHINA PHARMACEUTICAL UNIVERSITY, priority 2023, published 2026) can be followed below.

Broadly, the inhibition is the drop in the measured response relative to a control, in per cent.

For the first assay, the target named is T1, P2Y14 receptor (Homo sapiens, UniProt Q15391).
T1 construct: expressed in transfected cells; host or cells: HEK293
T1 sequence (Q15391 1-338): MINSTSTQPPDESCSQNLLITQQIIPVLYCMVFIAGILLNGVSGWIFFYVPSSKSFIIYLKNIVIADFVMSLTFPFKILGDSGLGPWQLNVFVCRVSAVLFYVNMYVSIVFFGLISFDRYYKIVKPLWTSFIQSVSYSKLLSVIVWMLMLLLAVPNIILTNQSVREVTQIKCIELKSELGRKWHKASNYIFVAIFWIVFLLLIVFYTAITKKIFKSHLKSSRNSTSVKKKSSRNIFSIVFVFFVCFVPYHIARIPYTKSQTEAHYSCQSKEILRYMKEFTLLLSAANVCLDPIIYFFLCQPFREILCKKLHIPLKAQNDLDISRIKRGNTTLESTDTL
Briefly: cAMP inhibition assay in HEK293 cells stably transfected with the P2Y14 receptor (UDPG-stimulated, cAMP Glo). The assay is classed as cell-based. The note with it: 100 nM compound; HEK293 stably transfected with P2Y14 receptor; 30 μM Forskolin, 1 μM UDPG, 4 h; inhibition rate from cAMP content; read-out: Inhibition @ 100 nM. Here is the method: An HEK293 cell strain stably transfected with the P2Y14 receptor was cultured in a DMEM culture medium (containing […], 100 U/mL penicillin, and 100 μg/mL streptomycin). Before the experiment, the cells were seeded into a culture plate at a density of 1×10^5 cells/well, and a serum-free culture medium was used instead. The cells were cultured at 37° C. with […] and 5% CO2 humidity. IBMX was added to inhibit the activity of PDEs, thereby ensuring a relatively high level of cAMP. The AC agonist Forskolin (30 μM) was adopted to stimulate the production of cellular cAMP. Test compounds at different concentrations (0.01 nm, 0.1 nm, 1 nm, 10 nm, and 100 nm) were added in advance, and PPTN was used as a positive control. Subsequently, 1 μM P2Y14 receptor agonist UDPG was added, and after 4 h, the content of intracellular cAMP was measured using a cAMP Glo™ Assay kit (PROMEGA Co. Ltd., USA). The inhibition rate was calculated based on the cAMP content.
Consider `Cc1ccc(C(=O)Nc2cc(C(=O)O)sc2Oc2ccc(F)cc2)cc1` [Compound 2, 5-(4-fluorophenoxy)-4-(4-methylbenzamido)thiophene-2-carboxylic acid], for which the inhibition at 0.1 µM came out at 70.4%.

`Cc1ccc(C(=O)Nc2cc(C(=O)O)sc2Oc2ccccc2)cc1` [Compound 3-1]: the inhibition at 0.1 µM turned out to be 44.1%.

On to `Cc1ccc(C(=O)Nc2cc(C(=O)O)sc2Oc2cccc(F)c2)cc1` [Compound 3-2], for which the inhibition at 0.1 µM turned out to be 69.6%.

Take `Cc1ccc(C(=O)Nc2cc(C(=O)O)sc2Oc2ccccc2F)cc1` [Compound 3-3]: the inhibition at 0.1 µM came to 66%.

As for `Cc1ccc(C(=O)Nc2cc(C(=O)O)sc2Oc2ccc(Cl)cc2)cc1` [Compound 3-4], the inhibition at 0.1 µM was determined as 30.9%.

As to `Cc1ccc(C(=O)Nc2cc(C(=O)O)sc2Oc2cccc(Cl)c2)cc1` [Compound 3-5], the inhibition at 0.1 µM stood at 36.2%.

For the compound `Cc1ccc(C(=O)Nc2cc(C(=O)O)sc2Oc2ccccc2Cl)cc1` [Compound 3-6], the inhibition at 0.1 µM turned out to be 40.4%.

`Cc1ccc(C(=O)Nc2cc(C(=O)O)sc2Oc2ccc(C(F)(F)F)cc2)cc1` [Compound 3-7]: the inhibition at 0.1 µM came out at 62.6%.

`Cc1ccc(C(=O)Nc2cc(C(=O)O)sc2Oc2cccc(C(F)(F)F)c2)cc1` [Compound 3-8]: the inhibition at 0.1 µM is 52.8%.

Consider `Cc1ccc(C(=O)Nc2cc(C(=O)O)sc2Oc2ccccc2C(F)(F)F)cc1` [Compound 3-9], for which the inhibition at 0.1 µM came to 57.1%.

For `Cc1ccc(C(=O)Nc2cc(C(=O)O)sc2Oc2ccc(OC(F)(F)F)cc2)cc1` [Compound 3-10], the inhibition at 0.1 µM turned out to be 32.7%.

Regarding `CC(=O)c1ccc(Oc2sc(C(=O)O)cc2NC(=O)c2ccc(C)cc2)cc1` [Compound 3-11], the inhibition at 0.1 µM turned out to be 34.5%.

As to `Cc1ccc(C(=O)Nc2cc(C(=O)O)sc2Oc2ccc(C(=O)O)cc2)cc1` [Compound 3-12], the inhibition at 0.1 µM worked out at 44.1%.

On to `Cc1ccc(C(=O)Nc2cc(C(=O)O)sc2Oc2ccc(C#N)cc2)cc1` [Compound 3-13], for which the inhibition at 0.1 µM turned out to be 46.2%.

For `Cc1ccc(C(=O)Nc2cc(C(=O)O)sc2Oc2ccc(S(C)(=O)=O)cc2)cc1` [Compound 3-14], the inhibition at 0.1 µM stood at 62.8%.

Take `Cc1ccc(Oc2sc(C(=O)O)cc2NC(=O)c2ccc(C)cc2)cc1` [Compound 3-15]: the inhibition at 0.1 µM worked out at 88.4%.

In the case of `Cc1ccc(C(=O)Nc2cc(C(=O)O)sc2Oc2cccc(C)c2)cc1` [Compound 3-16], the inhibition at 0.1 µM came to 55.8%.

On to `Cc1ccc(C(=O)Nc2cc(C(=O)O)sc2Oc2ccccc2C)cc1` [Compound 3-17], for which the inhibition at 0.1 µM worked out at 45.8%.

For `COc1ccc(Oc2sc(C(=O)O)cc2NC(=O)c2ccc(C)cc2)cc1` [Compound 3-18], the inhibition at 0.1 µM was found to be 69.8%.

As for `CCc1ccc(Oc2sc(C(=O)O)cc2NC(=O)c2ccc(C)cc2)cc1` [Compound 3-19], the inhibition at 0.1 µM stood at 67.4%.

For `CCCc1ccc(Oc2sc(C(=O)O)cc2NC(=O)c2ccc(C)cc2)cc1` [Compound 3-20], the inhibition at 0.1 µM amounted to 66.3%.

`Cc1ccc(C(=O)Nc2cc(C(=O)O)sc2Oc2ccc(C(C)C)cc2)cc1` [Compound 3-21]: the inhibition at 0.1 µM is 54.3%.

As to `Cc1ccc(C(=O)Nc2cc(C(=O)O)sc2Oc2ccc(C(C)(C)C)cc2)cc1` [Compound 3-22], the inhibition at 0.1 µM was 34.6%.

In the case of `CC(=O)Nc1ccc(Oc2sc(C(=O)O)cc2NC(=O)c2ccc(C)cc2)cc1` [Compound 3-23], the inhibition at 0.1 µM was 81.1%.

In the case of `Cc1ccc(C(=O)Nc2cc(C(=O)O)sc2Oc2ccc(C(=O)NCC3CS(=O)(=O)C3)cc2)cc1` [Compound 3-24], the inhibition at 0.1 µM came out at 75.6%.

On to `Cc1ccc(C(=O)Nc2cc(C(=O)O)sc2Oc2ccc(C(=O)NCCC3CCOCC3)cc2)cc1` [Compound 3-25], for which the inhibition at 0.1 µM stood at 49.5%.

As for `Cc1ccc(C(=O)Nc2cc(C(=O)O)sc2Oc2cccnc2)cc1` [Compound 6-1], the inhibition at 0.1 µM was found to be 62%.

Take `Cc1ccc(C(=O)Nc2cc(C(=O)O)sc2Oc2ccc(F)nc2)cc1` [Compound 6-2]: the inhibition at 0.1 µM came to 88.4%.

With `Cc1ccc(C(=O)Nc2cc(C(=O)O)sc2Oc2ccccn2)cc1` [Compound 6-3], the inhibition at 0.1 µM worked out at 74.9%.

For `Cc1ccc(C(=O)Nc2cc(C(=O)O)sc2Oc2ccc(F)cn2)cc1` [Compound 6-5], the inhibition at 0.1 µM worked out at 75.5%.

In the case of `Cc1ccc(C(=O)Nc2cc(C(=O)O)sc2Oc2ccncc2)cc1` [Compound 6-6], the inhibition at 0.1 µM was 43.5%.

As for `Cc1ccc(C(=O)Nc2cc(C(=O)O)sc2Oc2ccsn2)cc1` [Compound 6-7], the inhibition at 0.1 µM was 60.3%.

In the case of `Cc1ccc(Nc2sc(C(=O)O)cc2NC(=O)c2ccc(C)cc2)cc1` [Compound 8, 4-(4-methylbenzamido)-5-(p-tolylamino)thiophene-2-carboxylic acid], the inhibition at 0.1 µM came to 75.6%.

Turning to `Cc1ccc(C(=O)Nc2cc(C(=O)O)sc2Nc2ccccc2)cc1` [Compound 9-1], the inhibition at 0.1 µM turned out to be 82.3%.

As to `Cc1ccc(C(=O)Nc2cc(C(=O)O)sc2Nc2ccc(F)cc2)cc1` [Compound 9-2], the inhibition at 0.1 µM is 55.7%.

Consider `CCc1ccc(Nc2sc(C(=O)O)cc2NC(=O)c2ccc(C)cc2)cc1` [Compound 9-3], for which the inhibition at 0.1 µM came to 71.5%.

On to `Cc1ccc(C(=O)Nc2cc(C(=O)O)sc2Nc2ccc(C(C)C)cc2)cc1` [Compound 9-4], for which the inhibition at 0.1 µM is 59.8%.

Turning to `Cc1ccc(Sc2sc(C(=O)O)cc2NC(=O)c2ccc(C)cc2)cc1` [Compound 11, 4-(4-methylbenzamido)-5-(p-tolylthio)thiophene-2-carboxylic acid], the inhibition at 0.1 µM stood at 75.6%.

`Cc1ccc(C(=O)Nc2cc(C(=O)O)sc2Sc2ccccc2)cc1` [Compound 12-1]: the inhibition at 0.1 µM came out at 57.5%.

On to `Cc1ccc(C(=O)Nc2cc(C(=O)O)sc2Sc2ccc(F)cc2)cc1` [Compound 12-2], for which the inhibition at 0.1 µM amounted to 61.4%.

Consider `CCc1ccc(Sc2sc(C(=O)O)cc2NC(=O)c2ccc(C)cc2)cc1` [Compound 12-3], for which the inhibition at 0.1 µM was 67.5%.

In the case of `Cc1ccc(C(=O)Nc2cc(C(=O)O)sc2Sc2ccc(C(F)(F)F)cc2)cc1` [Compound 12-4], the inhibition at 0.1 µM came to 82.5%.

As for `Cc1ccc(Oc2sc(C(=O)O)cc2NC(=O)c2ccccc2)cn1` [Compound 14, 5-((6-methylpyridin-3-yl)oxy)-4-(benzamido)thiophene-2-carboxylic acid], the inhibition at 0.1 µM was 86.9%.

Regarding `Cc1ccc(Oc2sc(C(=O)O)cc2NC(=O)c2ccc(F)cc2)cn1` [Compound 15-1], the inhibition at 0.1 µM was found to be 75.7%.

With `Cc1ccc(Oc2sc(C(=O)O)cc2NC(=O)c2ccc(Cl)cc2)cn1` [Compound 15-2], the inhibition at 0.1 µM is 75.4%.

As for `CCc1ccc(C(=O)Nc2cc(C(=O)O)sc2Oc2ccc(C)nc2)cc1` [Compound 15-3], the inhibition at 0.1 µM worked out at 46.4%.

Consider `CCCc1ccc(C(=O)Nc2cc(C(=O)O)sc2Oc2ccc(C)nc2)cc1` [Compound 15-4], for which the inhibition at 0.1 µM is 85.6%.

As to `Cc1ccc(Oc2sc(C(=O)O)cc2NC(=O)c2ccc(C(C)C)cc2)cn1` [Compound 15-5], the inhibition at 0.1 µM stood at 78.7%.

For `Cc1ccc(Oc2sc(C(=O)O)cc2NC(=O)c2ccc(C(C)(C)C)cc2)cn1` [Compound 15-6], the inhibition at 0.1 µM worked out at 86.1%.

For the compound `C#Cc1ccc(C(=O)Nc2cc(C(=O)O)sc2Oc2ccc(C)nc2)cc1` [Compound 15-7], the inhibition at 0.1 µM was found to be 94.6%.

The assay is the same for the next values; noted with them: HEK293, read-out: Inhibition @ 100 nM.
Consider `Cc1ccc(C(=O)Nc2cc(C(=O)O)sc2Oc2ccc(C)cn2)cc1` [Compound 6-4], for which the inhibition at 0.1 µM came to 81.3%.
